For one data set, the system named is animal tumor systems. Particulars: reported in J. Antibiotics 27:254-259 (1974) and others; cited from earlier work.
Data set [1] is described as follows: Acute toxicity, LD50 upon intraperitoneal injection. It counts as in vivo. An excerpt:
The LD50 values upon intraperitoneal injection of the
antibiotics of the present invention are shown in the […]

In another data set the test system is animal tumors. Briefly: Inhibition of growth of animal tumors. It counts as in vivo. Conditions: experimental animal tests; listed as Baumycin B2. An excerpt:
(§1) For example, BDF1 mice were inoculated intraperitoneally with 1 × 10^6 L-1210 cells/mouse and 24 hrs. after inoculation the drug was intraperitoneally injected once daily for 10 days consecutively. On day 30, the % of prolongation of the survival time to control was as follows: […]

The next data set relates to gram-positive bacteria. Briefly: Antimicrobial activity against gram-positive bacteria. It counts as cell-based. Particulars: listed as Baumycin B2. An excerpt:
(§2) The minimum inhibitory concentration of the present antibiotics as determined by the broth dilution method are shown in Table 1.

Another data set relates to mouse L-1210 leukemia. Briefly: Prolongation of survival time of mice inoculated with L-1210 leukemia. It counts as in vivo, BDF1 mice. Particulars: for Prolongation of the survival time T/C: BDF1 mice, 1 × 10^6 L-1210 cells i.p., day 30.
Description: as §1

A further data set is described as follows: Solubility. It counts as physicochemical.
Data set [2] can be described thus: Toxicity in experimental animal tests. The data set is classed as in vivo.
For another data set, the system named is Coryne. bovis 1810. The data set can be described thus: Minimum inhibitory concentration, broth dilution method. It counts as cell-based.
Description: as §2
On the technique in general: Dilution methods test growth across graded concentrations, often in twofold steps.

The subject of data set [3] is B. megarterium NRRL B-938. The data set is described as above. It counts as cell-based.
Description: as §2

The next data set concerns B. cereus ATCC 9634. The description is as above. It counts as cell-based. Particulars: B. cereus ATCC 9634.
Description: as §2

The next data set relates to Micrococcus flavs. The description is as above. It counts as cell-based. Conditions: Micrococcus flavs.
Description: as §2

Another data set relates to Candida tropicalis. Described as above. It counts as cell-based.
Description: as §2

The subject of another data set is B. subtilis ATCC 6633. The data set is described as above. It counts as cell-based. Particulars: B. subtilis ATCC 6633.
Description: as §2

The test system of data set [4] is Candida albicans IAM 4905. The description is as above. The data set is classed as cell-based. Particulars: Candida albicans IAM 4905.
Description: as §2

A further data set concerns Staph. aureus FDA209P. The description is as above. The data set is classed as cell-based.
Description: as §2

For the next data set, the system named is Staph. aureus Smith. The data set is described as above. The data set is classed as cell-based.
Description: as §2

Another data set concerns Proteus morganii. Described as above. The data set is classed as cell-based.
Description: as §2

A further data set deals with Sarcina lutea ATCC 9341. Described as above. It counts as cell-based. Conditions: Sarcina lutea ATCC 9341.
Description: as §2

Data set [5] concerns Mycobacterium smegmatis ATCC 607. The description is as above. The data set is classed as cell-based. Conditions: Mycobacterium smegmatis ATCC 607.
Description: as §2

The test system of data set [6] is Ps. fluorescens NIHJB-254. The description is as above. The data set is classed as cell-based. Conditions: Ps. fluorescens NIHJB-254.
Description: as §2

The LD50 is the dose expected to kill half of the subjects tested. Read a low LD50 as a more toxic substance.

SMILES strings stand for the structures. ≈ marks a conversion by molar mass, not a printed value. Entries after “also recorded” stand apart in the source; their conditions may differ. A value given as a limit tells only on which side of the number the result lay.

Regarding `CC(=O)[C@]1(O)Cc2c(O)c3c(c(O)c2[C@@H](O[C@H]2C[C@H](N)[C@H](O)[C@H](C)O2)C1)C(=O)c1c(O)cccc1C3=O` [carminomycin], in the data set on animal tumor systems, the “Activity in animal tumor systems” value is on record as “active in several animal tumor systems”.

In turn, `COc1cccc2c1C(=O)c1c(O)c3c(c(O)c1C2=O)CC(O)(C(C)=O)CC3OC1CC(N)C(OC(CC(C)O)OC(C)C(=O)O)C(C)O1` (stereo not drawn) [BM-B2] returned an LD50 in data set [1] of 75 to 100 mg/kg. For the same molecule, the “Inhibition of growth of animal tumors / antitumor activity” value in the data set on animal tumors is “inhibit the growth of various animal tumors; also recorded: marked antitumor activity; also recorded: marked inhibitory action against animal malignant tumors, especially ascitic and solid tumors”. In addition, the Antimicrobial activity result in the data set with gram-positive bacteria was “inhibit the growth of gram-positive bacteria; also recorded: possess antimicrobial activity, especially against gram-positive bacteria”. Moreover, the “Prolongation of the survival time T/C” value with mouse L-1210 leukemia (1 mg./kg./day i.p. once daily for 10 days) is on record as 99%; in the data set on mouse L-1210 leukemia (2 mg./kg./day i.p. once daily for 10 days), 99%; with mouse L-1210 leukemia (4 mg./kg./day i.p. once daily for 10 days) it was 111%; in the data set on mouse L-1210 leukemia (6 mg./kg./day i.p. once daily for 10 days), 135%; in the data set on mouse L-1210 leukemia (8 mg./kg./day i.p. once daily for 10 days) it was 155%. The “Inhibitory effect on mouse L-1210 leukemia” value in the data set with mouse L-1210 leukemia (in words) is given as “marked inhibitory effects”. For the same molecule, the Solubility entry in the data set “Solubility” (in acidic water, methyl cellosolve, methanol, ethanol, n-propanol and n-butanol) is on record as “Soluble”; in “Solubility” (in ethyl acetate, acetone, methylene chloride, chloroform, carbon tetrachloride, benzene, toluene, ethyl ether and n-hexane), “Insoluble”; in “Solubility” (in water, listed as Baumycin B2) it was “soluble”. Also, the Toxicity entry in [2] was “low toxicity”. The Minimum inhibitory concentration in the data set on Coryne. bovis 1810 is 50 µg/mL (≈ 72.7 µM); in data set [3], > 100 µg/mL; in the data set with B. cereus ATCC 9634, > 100 µg/mL; with Micrococcus flavs, 50 µg/mL (≈ 72.7 µM); with Candida tropicalis, > 100 µg/mL; in the data set on B. subtilis ATCC 6633, > 100 µg/mL. Further, the Minimum inhibitory concentration in data set [4] is > 100 µg/mL; in the data set with Staph. aureus FDA209P, 100 µg/mL (≈ 145 µM); in the data set with Staph. aureus Smith, 50 µg/mL (≈ 72.7 µM); in the data set on Proteus morganii, > 100 µg/mL; in the data set with Sarcina lutea ATCC 9341 it was 25 µg/mL (≈ 36.4 µM); in [5], > 100 µg/mL. In addition, the Minimum inhibitory concentration in [6] was > 100 µg/mL.
